In the kinase profiling compilation of Christmann-Franck et al. (2016):
Values joined by “and” are separate entries in the source; they are usually repeats but may differ in a detail not shown here. Equal entries are not always repeated.

Tests used:
Assay in all cases: radiometric filter-binding kinase assay, Kinaseprofiler
[1] = target: CSF1R (human) (UniProt P07333); settings: ATP 200 µM
[2] = target: FYN (human) (UniProt P06241); settings: ATP 70 µM
[3] = target: HIPK3 (human) (UniProt Q9H422); settings: ATP 15 µM
[4] = target: ROCK1 (human) (UniProt Q13464); settings: ATP 70 µM
[5] = target: ITK (human) (UniProt Q08881); settings: ATP 200 µM
Chain of ITK (human) (Q08881 whole entry, looked up): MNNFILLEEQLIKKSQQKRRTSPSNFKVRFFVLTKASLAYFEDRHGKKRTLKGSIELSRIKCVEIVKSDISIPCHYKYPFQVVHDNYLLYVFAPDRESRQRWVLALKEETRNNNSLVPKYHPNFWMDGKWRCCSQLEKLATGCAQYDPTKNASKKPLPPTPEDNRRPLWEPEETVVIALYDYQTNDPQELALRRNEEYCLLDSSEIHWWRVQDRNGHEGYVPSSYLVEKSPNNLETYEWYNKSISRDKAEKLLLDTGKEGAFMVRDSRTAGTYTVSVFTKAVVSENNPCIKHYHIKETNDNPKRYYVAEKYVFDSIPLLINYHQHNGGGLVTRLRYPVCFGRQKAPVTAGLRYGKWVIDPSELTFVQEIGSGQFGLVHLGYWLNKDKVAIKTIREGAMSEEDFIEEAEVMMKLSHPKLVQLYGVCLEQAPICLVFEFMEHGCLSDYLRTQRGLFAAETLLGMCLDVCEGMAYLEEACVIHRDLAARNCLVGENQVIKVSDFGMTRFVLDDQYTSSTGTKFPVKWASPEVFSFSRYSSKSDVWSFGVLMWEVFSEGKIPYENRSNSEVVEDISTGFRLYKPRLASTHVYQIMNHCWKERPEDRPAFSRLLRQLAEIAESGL

[6] = target: DMPK (human) (UniProt Q09013); settings: ATP 10 µM
[7] = target: MST1R (human) (UniProt Q04912); settings: ATP 70 µM
[8] = target: TBK1 (human) (UniProt Q9UHD2); settings: ATP 155 µM
[9] = target: CAMK2B (human) (UniProt Q13554); settings: ATP 15 µM
[10] = target: PLK3 (human) (UniProt Q9H4B4); settings: ATP 70 µM
[11] = target: CAMK2D (human) (UniProt Q13557); settings: ATP 10 µM
[12] = target: EPHB1 (human) (UniProt P54762); settings: ATP 200 µM
[13] = target: STK33 (human) (UniProt Q9BYT3); settings: ATP 155 µM
[14] = target: IGF1R (human) (UniProt P08069)
Chain of IGF1R (human) (P08069 whole entry, looked up): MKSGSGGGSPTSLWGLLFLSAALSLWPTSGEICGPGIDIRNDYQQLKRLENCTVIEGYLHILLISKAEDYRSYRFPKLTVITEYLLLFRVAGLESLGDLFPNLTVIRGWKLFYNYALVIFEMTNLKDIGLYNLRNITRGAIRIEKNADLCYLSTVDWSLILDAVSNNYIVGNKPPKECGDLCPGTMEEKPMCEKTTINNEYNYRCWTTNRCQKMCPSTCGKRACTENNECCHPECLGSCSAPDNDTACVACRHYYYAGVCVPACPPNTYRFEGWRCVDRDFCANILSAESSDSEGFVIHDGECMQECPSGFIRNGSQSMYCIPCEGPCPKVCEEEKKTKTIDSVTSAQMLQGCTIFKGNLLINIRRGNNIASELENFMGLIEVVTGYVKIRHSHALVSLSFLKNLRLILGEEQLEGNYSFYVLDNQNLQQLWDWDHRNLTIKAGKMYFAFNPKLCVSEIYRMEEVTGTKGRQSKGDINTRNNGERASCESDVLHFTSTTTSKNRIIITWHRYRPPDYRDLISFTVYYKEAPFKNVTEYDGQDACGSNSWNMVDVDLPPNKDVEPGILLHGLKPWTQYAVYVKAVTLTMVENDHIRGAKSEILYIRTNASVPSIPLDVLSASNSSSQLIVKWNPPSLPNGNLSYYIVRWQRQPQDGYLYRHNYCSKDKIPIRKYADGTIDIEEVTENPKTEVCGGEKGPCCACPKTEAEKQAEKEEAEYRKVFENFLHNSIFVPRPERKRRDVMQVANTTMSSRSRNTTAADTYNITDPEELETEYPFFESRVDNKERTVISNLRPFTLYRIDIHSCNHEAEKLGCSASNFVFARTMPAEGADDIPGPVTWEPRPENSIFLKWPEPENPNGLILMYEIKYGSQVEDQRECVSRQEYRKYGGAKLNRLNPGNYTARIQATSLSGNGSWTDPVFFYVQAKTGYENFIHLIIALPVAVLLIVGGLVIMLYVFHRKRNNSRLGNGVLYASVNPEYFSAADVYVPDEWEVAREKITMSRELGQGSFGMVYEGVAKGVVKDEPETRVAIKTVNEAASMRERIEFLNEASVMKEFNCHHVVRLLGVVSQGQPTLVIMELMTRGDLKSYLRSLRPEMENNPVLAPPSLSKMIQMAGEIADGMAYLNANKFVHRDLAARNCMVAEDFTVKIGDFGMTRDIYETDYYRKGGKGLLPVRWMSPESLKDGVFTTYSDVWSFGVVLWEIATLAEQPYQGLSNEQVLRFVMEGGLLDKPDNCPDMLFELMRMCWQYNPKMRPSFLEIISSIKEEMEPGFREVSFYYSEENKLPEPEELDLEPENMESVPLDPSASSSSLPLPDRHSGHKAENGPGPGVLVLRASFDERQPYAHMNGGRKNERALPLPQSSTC

[15] = target: FER (human) (UniProt P16591); settings: ATP 70 µM
Chain of FER (human) (P16591 whole entry, looked up): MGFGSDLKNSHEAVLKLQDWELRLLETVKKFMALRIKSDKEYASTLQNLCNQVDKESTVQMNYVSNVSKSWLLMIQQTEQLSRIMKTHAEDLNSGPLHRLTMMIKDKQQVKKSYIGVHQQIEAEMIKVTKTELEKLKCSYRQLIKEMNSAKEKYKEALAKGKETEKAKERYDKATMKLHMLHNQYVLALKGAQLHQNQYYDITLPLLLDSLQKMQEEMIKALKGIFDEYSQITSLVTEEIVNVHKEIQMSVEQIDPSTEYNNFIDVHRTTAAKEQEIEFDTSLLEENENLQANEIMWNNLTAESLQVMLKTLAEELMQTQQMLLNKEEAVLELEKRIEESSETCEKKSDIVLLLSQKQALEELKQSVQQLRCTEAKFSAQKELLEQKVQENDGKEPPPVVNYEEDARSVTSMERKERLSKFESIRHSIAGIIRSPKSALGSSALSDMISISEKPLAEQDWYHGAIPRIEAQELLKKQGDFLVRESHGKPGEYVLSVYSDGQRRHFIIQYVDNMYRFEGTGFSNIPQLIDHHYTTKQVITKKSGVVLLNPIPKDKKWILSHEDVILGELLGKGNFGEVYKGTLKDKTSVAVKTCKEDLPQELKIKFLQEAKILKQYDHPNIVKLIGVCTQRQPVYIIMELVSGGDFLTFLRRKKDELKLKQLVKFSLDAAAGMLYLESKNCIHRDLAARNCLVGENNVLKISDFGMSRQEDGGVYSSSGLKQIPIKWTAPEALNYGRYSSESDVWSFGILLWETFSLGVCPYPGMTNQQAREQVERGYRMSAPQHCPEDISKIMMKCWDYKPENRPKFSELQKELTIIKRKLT

[16] = target: MAPK3 (human) (UniProt P27361); settings: ATP 70 µM
[17] = target: ABL1 (human) (UniProt P00519); settings: ATP 10 µM
[18] = target: JAK2 JH1 catalytic (human) (UniProt O60674); settings: ATP 45 µM
[19] = system: RPS6KB1 (human), P23443 [T412E]; settings: ATP 15 µM
Chain of RPS6KB1 (human), P23443 [T412E] (P23443 whole entry T412E, looked up): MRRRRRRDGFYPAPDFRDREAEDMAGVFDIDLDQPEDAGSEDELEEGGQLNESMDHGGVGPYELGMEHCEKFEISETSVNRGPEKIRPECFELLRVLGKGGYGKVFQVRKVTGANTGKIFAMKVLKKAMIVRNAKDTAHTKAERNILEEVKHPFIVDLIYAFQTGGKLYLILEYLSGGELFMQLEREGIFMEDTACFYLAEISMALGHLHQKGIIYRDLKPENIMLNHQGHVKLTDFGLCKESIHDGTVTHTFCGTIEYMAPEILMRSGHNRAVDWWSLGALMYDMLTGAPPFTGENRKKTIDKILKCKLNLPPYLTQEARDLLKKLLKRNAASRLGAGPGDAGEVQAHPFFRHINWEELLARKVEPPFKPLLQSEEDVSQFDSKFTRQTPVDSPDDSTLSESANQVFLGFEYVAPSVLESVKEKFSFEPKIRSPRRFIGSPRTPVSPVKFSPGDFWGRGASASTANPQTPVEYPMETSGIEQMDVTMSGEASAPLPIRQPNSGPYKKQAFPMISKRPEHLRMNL

[20] = target: EPHB4 (human) (UniProt P54760); settings: ATP 10 µM
Chain of EPHB4 (human) (P54760 whole entry, looked up): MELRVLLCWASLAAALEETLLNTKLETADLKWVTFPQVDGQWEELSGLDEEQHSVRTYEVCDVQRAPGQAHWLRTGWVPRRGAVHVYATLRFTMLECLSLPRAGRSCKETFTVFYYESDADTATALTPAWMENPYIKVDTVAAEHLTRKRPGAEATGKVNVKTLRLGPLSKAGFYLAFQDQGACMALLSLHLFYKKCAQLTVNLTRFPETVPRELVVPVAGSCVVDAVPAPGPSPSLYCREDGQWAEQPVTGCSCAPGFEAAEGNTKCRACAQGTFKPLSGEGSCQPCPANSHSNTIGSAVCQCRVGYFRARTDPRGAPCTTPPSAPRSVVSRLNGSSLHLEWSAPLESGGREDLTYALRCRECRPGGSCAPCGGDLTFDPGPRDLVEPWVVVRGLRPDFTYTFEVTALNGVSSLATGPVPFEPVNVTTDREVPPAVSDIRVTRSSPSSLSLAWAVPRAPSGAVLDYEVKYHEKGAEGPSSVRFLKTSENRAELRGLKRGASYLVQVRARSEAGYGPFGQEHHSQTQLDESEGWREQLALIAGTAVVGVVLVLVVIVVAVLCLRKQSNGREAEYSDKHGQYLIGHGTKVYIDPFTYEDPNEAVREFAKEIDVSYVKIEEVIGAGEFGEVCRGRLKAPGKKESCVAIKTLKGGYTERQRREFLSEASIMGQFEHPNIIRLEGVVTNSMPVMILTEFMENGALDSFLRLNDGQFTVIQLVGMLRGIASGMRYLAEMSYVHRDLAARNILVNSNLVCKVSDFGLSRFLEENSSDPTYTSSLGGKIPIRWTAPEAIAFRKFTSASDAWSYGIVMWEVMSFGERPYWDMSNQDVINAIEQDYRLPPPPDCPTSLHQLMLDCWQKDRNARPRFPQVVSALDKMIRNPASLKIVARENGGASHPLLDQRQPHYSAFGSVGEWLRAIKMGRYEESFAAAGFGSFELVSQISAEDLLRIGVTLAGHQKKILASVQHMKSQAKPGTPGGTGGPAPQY

[21] = target: NEK7 (human) (UniProt Q8TDX7); settings: ATP 45 µM
[22] = target: NLK (human) (UniProt Q9UBE8); settings: ATP 200 µM
[23] = target: DAPK3 (human) (UniProt O43293); settings: ATP 15 µM
[24] = target: PRKCZ (human) (UniProt Q05513); settings: ATP 15 µM
[25] = target: CAMK1D (human) (UniProt Q8IU85); settings: ATP 15 µM
[26] = target: PRKG1 (human) (UniProt Q13976); settings: ATP 90 µM
Chain of PRKG1 (human) (Q13976 whole entry, looked up): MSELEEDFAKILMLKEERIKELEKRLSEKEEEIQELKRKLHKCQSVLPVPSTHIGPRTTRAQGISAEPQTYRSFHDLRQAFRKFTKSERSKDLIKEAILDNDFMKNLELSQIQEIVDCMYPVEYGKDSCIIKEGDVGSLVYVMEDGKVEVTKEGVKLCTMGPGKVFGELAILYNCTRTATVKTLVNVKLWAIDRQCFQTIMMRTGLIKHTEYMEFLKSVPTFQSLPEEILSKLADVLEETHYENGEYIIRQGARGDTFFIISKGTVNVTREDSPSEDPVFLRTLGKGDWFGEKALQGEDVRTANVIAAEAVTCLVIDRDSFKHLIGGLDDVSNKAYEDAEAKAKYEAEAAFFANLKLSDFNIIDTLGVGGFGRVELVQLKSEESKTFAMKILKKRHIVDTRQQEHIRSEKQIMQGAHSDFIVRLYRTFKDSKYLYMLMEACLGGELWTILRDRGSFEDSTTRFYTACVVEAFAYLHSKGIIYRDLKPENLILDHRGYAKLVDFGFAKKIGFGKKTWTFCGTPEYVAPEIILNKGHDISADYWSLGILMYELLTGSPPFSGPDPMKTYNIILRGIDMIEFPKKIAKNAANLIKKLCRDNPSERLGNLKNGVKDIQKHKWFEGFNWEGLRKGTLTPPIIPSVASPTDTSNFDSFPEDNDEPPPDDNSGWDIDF

[27] = target: SRPK3 (human) (UniProt Q9UPE1); settings: ATP 15 µM
[28] = target: CSK (human) (UniProt P41240); settings: ATP 15 µM
[29] = system: CSNK1D (rat); settings: accession and sequence are those of the human protein
[30] = target: RET (human) (UniProt P07949); settings: ATP 70 µM
[31] = target: PRKCA (human) (UniProt P17252); settings: ATP 45 µM
[32] = target: RPS6KA2 KD1 KD2 (human) (UniProt Q15349); settings: ATP 10 µM
[33] = target: EPHA1 (human) (UniProt P21709); settings: ATP 45 µM

residual activity ([1]; compound 1.0 µM): 15%
residual activity ([1]; compound 10.0 µM): 8%
residual activity ([2]; compound 1.0 µM): 5%
residual activity ([2]; compound 10.0 µM): 0%
residual activity ([3]; compound 1.0 µM): 88%
residual activity ([3]; compound 10.0 µM): 19%
residual activity ([4]; compound 1.0 µM): 108%
residual activity ([4]; compound 10.0 µM): 92%
residual activity ([5]; compound 1.0 µM): 19%
residual activity ([5]; compound 10.0 µM): 1%
residual activity ([6]; compound 1.0 µM): 109%
residual activity ([6]; compound 10.0 µM): 83%
residual activity ([7]; compound 1.0 µM): 86%
residual activity ([7]; compound 10.0 µM): 71%
residual activity ([8]; compound 1.0 µM): 9%
residual activity ([8]; compound 10.0 µM): 1%
residual activity ([9]; compound 1.0 µM): 33%
residual activity ([9]; compound 10.0 µM): 11%
residual activity ([10]; compound 1.0 µM): 96%
residual activity ([10]; compound 10.0 µM): 91%
residual activity ([11]; compound 1.0 µM): 10%
residual activity ([11]; compound 10.0 µM): 2%
residual activity ([12]; compound 1.0 µM): 59%
residual activity ([12]; compound 10.0 µM): 13%
residual activity ([13]; compound 1.0 µM): 43%
residual activity ([13]; compound 10.0 µM): 8%
residual activity ([14]; compound 1.0 µM, ATP 45 µM): 40%
residual activity ([14]; compound 1.0 µM, ATP 200 µM): 37%
residual activity ([14]; compound 10.0 µM, ATP 45 µM): 20%
residual activity ([14]; compound 10.0 µM, ATP 200 µM): 26%
residual activity ([15]; compound 1.0 µM): 70%
residual activity ([15]; compound 10.0 µM): 53%
residual activity ([16]; compound 1.0 µM): 114%
residual activity ([16]; compound 10.0 µM): 101%
residual activity ([17]; compound 1.0 µM): 49%
residual activity ([17]; compound 10.0 µM): 16%
residual activity ([18]; compound 1.0 µM): 92%
residual activity ([18]; compound 10.0 µM): 11%
residual activity ([19]; compound 1.0 µM): 37%
residual activity ([19]; compound 10.0 µM): 13%
residual activity ([20]; compound 1.0 µM): 67%
residual activity ([20]; compound 10.0 µM): 13%
residual activity ([21]; compound 1.0 µM): 106%
residual activity ([21]; compound 10.0 µM): 102%
residual activity ([22]; compound 1.0 µM): 82%
residual activity ([22]; compound 10.0 µM): 67%
residual activity ([23]; compound 1.0 µM): 81%
residual activity ([23]; compound 10.0 µM): 37%
residual activity ([24]; compound 1.0 µM): 101%
residual activity ([24]; compound 10.0 µM): 98%
residual activity ([25]; compound 1.0 µM): 71%
residual activity ([25]; compound 10.0 µM): 56%
residual activity ([26]; compound 1.0 µM): 79% and 77%
residual activity ([26]; compound 10.0 µM): 45% and 67%
residual activity ([27]; compound 1.0 µM): 85%
residual activity ([27]; compound 10.0 µM): 46%
residual activity ([28]; compound 1.0 µM): 101%
residual activity ([28]; compound 10.0 µM): 78%
residual activity ([29]; compound 1.0 µM): 14%
residual activity ([29]; compound 10.0 µM): 4%
residual activity ([30]; compound 1.0 µM): 1%
residual activity ([30]; compound 10.0 µM): 0%
residual activity ([31]; compound 1.0 µM): 93%
residual activity ([31]; compound 10.0 µM): 86%
residual activity ([32]; compound 1.0 µM): 19%
residual activity ([32]; compound 10.0 µM): 4%
residual activity ([33]; compound 1.0 µM): 55%
residual activity ([33]; compound 10.0 µM): 61%
SMILES: O=C1Nc2ccccc2/C1=C1\Nc2ccccc2\C1=N/O
